# Data taken from patent US20260207591A1, “CRYSTAL FORM OF FLUORINE-SUBSTITUTED INDAZOLE COMPOUND AND USE THEREOF” (SUNSHINE LAKE PHARMA CO., LTD., priority 2022, published 2026).
# Experiments:
# [1] = Stability studies, overall conclusion; type: physicochemical
# Protocol: Example 5 Stability Studies
# (§1) Place an appropriate amount of the test sample in a flat weighing bottle, spreading it into a thin layer ≤5 mm thick. Store at 60° C.±2° C. for 30 days. Collect samples at 0, 5, 10, and 30 days for analysis according to the key stability test items. Observe any color changes and determine purity by HPLC.
# (§2) Place an appropriate amount of the test sample from one batch in a flat weighing bottle, spreading it into a thin layer ≤5 mm thick. Store at 25° C. and 90%±5% relative humidity (RH) for 30 days. Collect samples at 0, 5, 10, and 30 days for analysis according to the key stability test items. Observe any color changes and determine purity by HPLC.
# (§3) Expose the sample to visible light (4500 lx±500 lx) and UV light (energy ≥0.7 W·h/m^2) for 30 days. Collect samples at 0, 5, 10, 15, and 30 days for analysis according to the key stability test items. Observe any color changes and determine purity by HPLC.
# [2] = Light-exposure test (stability study); type: physicochemical; conditions: visible 4500 lx±500 lx and UV, 30 days; for Purity (%): HPLC
# Description: as §3
# [3] = High-humidity test (stability study); type: physicochemical; conditions: for Purity (%): HPLC
# Protocol: as §2
# [4] = Hygroscopicity test by dynamic vapor sorption (DVS); type: physicochemical; conditions: for Weight Gain at 60% RH (%) / Weight Gain at 80% RH (%) / Weight Gain at 95% RH (%): DVS, 25° C.; for resistance to deliquescence: high-humidity conditions
# Protocol: The hygroscopicity of the present invention was determined using a DVS INT-Std dynamic vapor and gas sorption analyzer from Surface Measurement Systems Ltd. (UK) with the following parameters: humidity test range: 0%-95%, gas flow: 200 mL/min, temperature: 25° C., test points: one measurement point every 5% humidity increase.
# An appropriate amount of the test sample was taken, and its hygroscopicity was measured using a dynamic vapor sorption (DVS) instrument. The classification criteria for hygroscopicity characteristics and moisture absorption weight gain (as per Appendix 9103 “Guidelines for Hygroscopicity Testing of Drugs” from the Chinese Pharmacopoeia 2020 Edition, test conditions: 25° C.±1° C., 80%±2% relative humidity (RH)) are described in Table 2 below: […]
# Solubility (HPLC) = type: physicochemical
# Protocol: The solubility of the present invention was determined using an Agilent 1200 High Performance Liquid Chromatograph DAD/VWD detector with an Agilent XDB-C18 model (4.6×50 mm, 5 μm). Detection wavelength of 266 nm, flow rate of 1.0 mL/min, the column temperature of 35° C., mobile phase A: acetonitrile—0.01 M ammonium acetate=10:90 (V:V) analysis methods: acetonitrile-mobile phase A=70:30 (V:V), running time: 10 minutes.
# [5] = Pharmacokinetics test in Beagle dogs, oral capsules; type: in vivo; conditions: dog, plasma, male Beagle dogs, 5 mg/kg
# Protocol: Male Beagle dogs of 8-12 kg were divided into 3 groups, 3 dogs in each group, and capsules containing test samples were orally administered at a dose of 5 mg/kg, and blood was collected at time points of 0.25, 0.5, 1.0, 2.0, 4.0, 6.0, 8.0 and 24 h. Standard curve was plotted based on concentrations of the samples in a suitable range, the concentration of the test sample in the plasma sample was measured and quantified by AB SCIEX API4000-type LC-MS/MS at MRM mode. Pharmacokinetic parameters were calculated according to drug concentration-time curve using a noncompartmental method by WinNonLin 6.3 software.
# [6] = Crystal form conversion in solvents; type: physicochemical; conditions: solvents such as ethanol
# [7] = High-temperature test (stability study); type: physicochemical
# Protocol: (1) High-Temperature Test:
# as §1
# [8] = 0 day (start of stability tests)
# [9] = High-Humidity, 25° C., 90%±5% RH, 30 days
structure (smiles),measurement,setting,value
"COC(=O)Nc1c(N)nc(-c2nn(Cc3ccccc3F)c3c(F)cccc23)nc1N [Crystal Form XI, methyl (4,6-diamino-2-(7-fluoro-1-(2-fluorobenzyl)-1H-indazol-3-yl)pyrimidin-5-yl)carbamate]",crystal structure stability (polymorphic transition),[1],less prone to polymorphic transition
same,stability under various storage conditions,[1],excellent stability
same,Outward,[2],Off-white
same,Purity (%),[2],99.75%
same,Outward,[3]; [8],Off-white
same,Purity (%),[3]; [8],99.77%
same,Outward,[3]; [9],Off-white
same,Purity (%),[3]; [9],99.80%
same,Weight Gain at 60% RH (%),[4],0.15%
same,Weight Gain at 80% RH (%),[4],0.20%
same,Weight Gain at 95% RH (%),[4],0.26%
same,resistance to deliquescence,[4],highly resistant to deliquescence
same,solubility (in words),Solubility (HPLC),good solubility
same,AUC(0-t),[5],12100 ng·h/mL
same,Cmax,[5],1140 ng/mL
same,Tmax,[5],10 h
"COC(=O)Nc1c(N)nc(-c2nn(Cc3ccccc3F)c3c(F)cccc23)nc1N [Crystal Form V, methyl (4,6-diamino-2-(7-fluoro-1-(2-fluorobenzyl)-1H-indazol-3-yl)pyrimidin-5-yl)carbamate]",crystal form conversion in solvents,[6],exhibit crystal form conversion
same,polymorphic transformation under high-temperature conditions,[7],undergoes polymorphic transformation
same,Outward,[2],Pale yellow
same,Purity (%),[2],99.36%
same,Outward,[3]; [8],Off-white
same,Purity (%),[3]; [8],99.52%
same,Outward,[3]; [9],Off-white
same,Purity (%),[3]; [9],99.51%
"COC(=O)Nc1c(N)nc(-c2nn(Cc3ccccc3F)c3c(F)cccc23)nc1N [Crystal Form I, methyl (4,6-diamino-2-(7-fluoro-1-(2-fluorobenzyl)-1H-indazol-3-yl)pyrimidin-5-yl)carbamate]",crystal form conversion in solvents,[6],exhibit crystal form conversion
"COC(=O)Nc1c(N)nc(-c2nn(Cc3ccccc3F)c3c(F)cccc23)nc1N [Crystal Form III, methyl (4,6-diamino-2-(7-fluoro-1-(2-fluorobenzyl)-1H-indazol-3-yl)pyrimidin-5-yl)carbamate]",stability under various storage conditions,[1],excellent stability
same,Outward,[2],Pale yellow
same,Purity (%),[2],99.75%
same,Outward,[3]; [8],Pale yellow
same,Purity (%),[3]; [8],99.76%
same,Outward,[3]; [9],Pale yellow
same,Purity (%),[3]; [9],99.78%
same,Weight Gain at 60% RH (%),[4],0.09%
same,Weight Gain at 80% RH (%),[4],0.14%
same,Weight Gain at 95% RH (%),[4],0.25%
same,resistance to deliquescence,[4],highly resistant to deliquescence
